Assay results published in patent US6610741B1, “Skin cosmetic compositions containing a weak carboxylic acid and random copolymers of ethylene oxides and propylene oxides” (Unilever Home & Personal Care USA division of Conopco, Inc., priority 1999, dated 2003).

Test system: contralateral nasolabial folds of subjects sensitive to glycolic acid
Test: in-vivo sting test (sting/burn propensity and forced choice)
Design: species or system human
Details: additive in Base Formula A + 8% glycolic acid, pH 3.8; result in words
Description: Procedure for in-vivo sting test: This was a randomized, double blind study where each subject evaluated one test formulation and a control formulation or two test formulations on contralateral nasolabial folds. […] A maximum of 20 qualified subjects (minimum of 15) were utilized in each subsequent test. One paired comparison was made on each testing day, with a minimum of 3 days between sting testing throughout the study. Subjects underwent a 15 second Ivory soap wash regime immediately prior to product testing for enhancing sting response. […] Study personnel then applied one test formulation and one control or test formulation simultaneously to the appropriate left/right test site, and gently but thoroughly rubbed in. Subjects compared the stinging potential of the two formulations, over a 7.5 minute period using a self-assessment questionnaire.
Sting/Burn Propensity: The degree of stinging/burning felt on the left and right inner cheek and crease of the nose was evaluated using the following scale at the times indicated in Tables below:
0-no stinging/burning; 1-very slight stinging/burning; 2-slight stinging/burning; 3- moderate stinging/burning; 4-moderately high stinging/burning; 5-high stinging/burning; 6-extreme stinging/burning. […]
Statistical significance was determined at p≦0.1.

With `C[C@]12CCC(=O)C=C1CC[C@@H]1[C@@H]2[C@@H](O)C[C@@]2(C)[C@H]1CC[C@]2(O)C(=O)CO` [hydrocortisone] the “effect of additive on sting of Base Formula A containing 8% glycolic acid” value was “neither hydrocortisone nor arabinogalactan reduced the sting”.
